The IC50 is the midpoint of a concentration-inhibition curve.

One data set deals with JNK. The data set is described as follows: Western blot of MAPK pathway, phosphorylated JNK. Conditions: 10 μg/ml co-treated with 100 ng/ml RANKL, 0-60 minutes. The data set is classed as cell-based, mouse. As to the method: (§1) The effect of the compound of formula I on the protein expression of osteoclast MAPKs pathways induced by receptor activator of nuclear factor κB ligand was studied, experiments were performed by using the Western blot method; RAW 264.7 cells were rinsed in ice-cold PBS, cell lysis buffer was added, the components of the buffer solution included: 10 mM 4-(2-hydroxyethyl)-1-piperazineethanesulfonic acid (HEPES), 1.5 mM MgCl2, 0.5 mM dithiothreitol (DTT), 0.5 μg/ml leupeptin and 6.4% Nonidet P-40, reacted on ice for 15 minutes. The cells were scraped off with a spatula, collected into a 1.5 ml centrifuge tube, the cells were thoroughly broken by using a shaker; centrifuged at 12,000 rpm, 4° C. for 10 minutes; supernatant was added into a new 1.5 ml centrifuge tube; boiled with IX sodiumdodecyl sulfate (SDS) sample buffer, followed by electrophoresis using 10 to 12% SDS-PAGE. […] The transfer membrane was rinsed again and the membrane loaded with chemical luminescence reagent ECL was allowed to react with a photosensitive sheet in a darkroom for a suitable period of time, the photosensitive sheet then reacted with the developer. After the photosensitive sheet was exposed to light a band-shaped antibody-binding proteins was observed, quantified by the density of the bands. […]
A general note: Immunoblotting shows a protein as a band on a membrane.

The subject of another data set is RAW 264.7 cells. Description: Cytotoxicity test (MTT colorimetric assay). In kind it is cell-based. From the text: MTT (3-(4,5-dimethylthiazol-2-yl)-2,5-diphenyl tetrazolium bromide is yellow when dissolved in a phenol red-free medium. The yellow MTT solution is reduced by succinate dehydrogenase in mitochondria of living cells into purple insoluble formazan crystals, deposited in the cells generating blue formazan crystals. The amount of formazan crystals produced is proportional to the number of viable cells (succinate dehydrogenase in dead cells is degraded and unable to reduce MTT). Formazan crystals can be dissolved in acidic isopropanol or dimethyl sulfoxide (DMSO), and an enzyme linked immunosorbent assay detector can be used to measure the light absorption value, therefore, MTT can be used as a marker for cell survival rate.
Cytotoxicity test of the compound of formula I in RAW 264.7 cells was studied and detected by using the MTT colorimetric assay. […] After being cultured in an incubator at 37° C. for 4 hours, equivalent amount of cell culture solution by volume was added into dimethyl sulfoxide to dissolve MTT Formazan, 100 μl was respectively collected and placed in a 96 well-plate, and the light absorption value at 570 nm was determined by using an enzyme immunosorbent assay detector. The Cell survival rate (%) was calculated by using the following formula: (light absorption value of drug-treated cells)/light absorption value of culture solution-treated cells)×100%.
Firstly, we would like to know whether the compound of formula I were toxic to RAW 264.7 cells, and concentrations appropriate for subsequent experiments were to be selected. After being treated with 0, 1, 5, 10, 20, 40, 80 μg/ml of the compound of formula I for 72 hours, detected with the MTT colorimetric assay. […] To confirm the selected concentrations of the compound of formula I would not produce cytotoxin in the subsequent experiments, 10 μg/ml, 20 μg/ml of the compound of formula I were respectively used for treatment of 3, 6, 9, 12 days, the culture solution was replaced with fresh ones of the same condition once every three days and then detected with the MTT colorimetric assay.
In general terms: Tetrazolium dyes change colour on reduction, which living cells bring about.

The next data set concerns NFATc2. Description: Western blot of MAPK downstream protein NFATc2. In kind it is cell-based, mouse. Conditions: 10 μg/ml co-treated with 100 ng/ml RANKL, 48 hours. The protocol: as §1

In the case of `CNC(=O)N[C@]1(C)CCC[C@@]2(C)C3CC[C@@]4(C)C[C@]3(CCC21)CC4=O` (single isomer, unassigned; ent-16) [compound of formula I, ent-16-oxobeyeran-19-N-methylureido], the “expression of phosphorylated JNK” value in the data set on JNK is reported as “decreased”. For the same compound, in the data set with RAW 264.7 cells (10 μg/ml, 3, 6, 9, 12 days), the “cytotoxicity over time (MTT)” value is on record as “no cytotoxin was produced”. In addition, the “concentration above which cytotoxic (decreased survival rate)” value with RAW 264.7 cells (72 hours) is given as “higher than 40 μg/ml”. Further, the IC50 with RAW 264.7 cells (Mus musculus, RAW264.7, 72 hours, 0-80 μg/ml, read-out: IC50 (cell survival rate, MTT)) is ~40 µg/mL. Besides, in the data set with NFATc2, the NFATc2 protein expression result is “significantly reduced”.

(Values after patent US20180042874A1, “METHOD FOR TREATING OSTEOPOROSIS” (China Medical University, priority 2016, published 2018).)
